Test results: publication PMC4336331, “Novel Receptor-Derived Cyclopeptides to Treat Heart Failure Caused by Anti-β1-Adrenoceptor Antibodies in a Human-Analogous Rat Model” (PLoS ONE, 2015)

Key:
rat anti-β1EC2 = experiment: Competition-ELISA, blocking of rat anti-β1EC2; type: binding; conditions: preincubation (12h, 4°C) with 40-fold excess of peptide; linear β1EC2-peptides (AA199-223) as antigen; n = 20 (Fig. 1B)
[1] = test system: anti-β1EC2-induced β1-AR/cAMP signaling in HEKβ1-cells; experiment: FRET cAMP assay (Epac1-camps), blockade of anti-β1EC2-induced signals; type: cell-based, human; conditions: HEKβ1-cells with Epac1-camps FRET-sensor; IgG pre-incubated with peptide (Fig. 1F)
Procedure: The effects of anti-β1EC2 on β1AR-mediated intracellular cAMP-production were assessed by measuring fluorescence resonance energy transfer (FRET) in HEKβ1-cells transiently transfected with a FRET-sensor for cAMP, Epac1-camps. The sensor consists of the cAMP-binding protein Epac1 flanked by enhanced cyan or yellow fluorescent protein. […] IgG-preparations were added to the cells at 0.13 μg/μl protein concentration; 2μM (-)isoproterenol (Sigma) was used as a reference to determine the maximal cAMP-response. To test the blocking-efficacy of β1EC2-CP on anti-β1EC2-induced adrenergic signaling, the different IgG-preparations were pre-incubated with β1EC2-CP (20 μg/μl) for 6 h at 4 °C; for pharmacological blockade of anti-β1EC2-induced signals we utilised 5.0μM bisoprolol.
(D) Immunostaining experiments with rat anti- β1EC2 (1:100) using HEK-cells stably expressing β1-ARs (HEK β1) or not (wild type; HEK WT). IgG was prepared from anti- β1EC2-positive rats or 0.9% NaCl-injected control rats. Amino-terminal β1AR-specific rabbit anti-bodies (1:250) served as positive controls. […] HEK β1-cells were transfected with the cAMP-sensor Epac1-camps, which reacts to cAMP-binding with a reduction in fluorescence resonance energy transfer (FRET) between its fluorophores cyan (CFP) and yellow fluorescent protein (YFP). […] Representative FRET-ratio traces of 1/5 experiments are shown. Values are given in % of maximal cAMP-response achieved with 0.3μM (-)isoproterenol (Iso).

With “cyclo(RATHQEAINCYANETCCDFFTNQG) (cysteine pairing not given here) [β2EC2-CP, control for specificity, reference compound]” the “blocking of anti-β1EC2 in competition-ELISA, in words” value (rat anti-β1EC2) was “not blocked at all” and the “blockade of anti-β1EC2-induced cAMP-signals, in words” value [1] was “not blocked at all”.
